In patent US9284325B2, “Spectinamides as anti-tuberculosis agents” (UNIVERSITY OF TENNESSEE RESEARCH FOUNDATION, priority 2009, dated 2016):
Structures can show the parent of a compound that is named as a salt. Where two headings read alike, the source gives them in different places.

Key:
M. tuberculosis H37Rv = test: MIC determination by microbroth dilution, anti-tuberculosis activity; format: cell-based, Mycobacterium tuberculosis
[1] = tested on: S. aureus 8325 or strain ATCC 29213; test: MIC determination by microbroth dilution; format: cell-based, Staphylococcus aureus; settings: S. aureus 8325 or strain ATCC 29213 (for 1471-1544); for MIC: Staphylococcus aureus, ATCC29213
[2] = tested on: Strep. pyogenes ATCC 700294; test: MIC determination by microbroth dilution; format: cell-based, Streptococcus pyogenes; settings: for MIC: Streptococcus pyogenes, ATCC700294, read-out: MIC S. pyogenes
[3] = tested on: Strep. pneumoniae DAW27 or strain R6; test: MIC determination by microbroth dilution; format: cell-based, Streptococcus pneumoniae; settings: Strep. pneumoniae DAW27 or strain R6 (for 1443-1544); for MIC: Streptococcus pneumoniae, read-out: MIC S. pneumoniae
E. faecalis ATCC 33186 = test: MIC determination by microbroth dilution; format: cell-based, Enterococcus faecalis; settings: for MIC: Enterococcus faecalis, ATCC33186
B. anthracis Sterne 34F2 = test: microbe, parasite or virus in culture; format: cell-based, Bacillus anthracis; settings: for MIC: Bacillus anthracis, STERNE34F2, read-out: MIC B. anthracis 34F2
[4] = tested on: Burkholderia cepacia ATCC 25416; test: MIC determination by microbroth dilution; format: cell-based; settings: for MIC: ATCC25416, read-out: MIC B. cepcia
[5] = tested on: Proteus mirabilis ATCC 25933; test: MIC determination by microbroth dilution; format: cell-based; settings: for MIC: ATCC25933
[6] = tested on: Proteus vulgaris ATCC 33420; test: MIC determination by microbroth dilution; format: cell-based; settings: for MIC: ATCC33420
[7] = tested on: Klebsiella pneumoniae ATCC 33495; test: MIC determination by microbroth dilution; format: cell-based; settings: for MIC: ATCC33495
[8] = tested on: Acinetobacter baumannii ATCC 19606; test: MIC determination by microbroth dilution; format: cell-based; settings: for MIC: ATCC19606
P. aeruginosa PAO1 = test: MIC determination by microbroth dilution; format: cell-based, Pseudomonas aeruginosa; settings: for MIC: Pseudomonas aeruginosa
[9] = tested on: Strenotrophomonas maltophilia ATCC 13637; test: MIC determination by microbroth dilution; format: cell-based
E. coli K12 = test: MIC determination by microbroth dilution; format: cell-based, Escherichia coli; settings: for MIC: Escherichia coli, K12
E. coli K12 ΔtolC = test: microbe, parasite or virus in culture; format: cell-based; settings: for MIC: Escherichia coli, read-out: MIC E. coli K12 ΔtolC
E. coli ribosomes = format: biochemical; settings: for IC50, 50% inhibition of luciferase biosynthesis in S30 assay: E. coli S30 transcription/translation assay; for relative inhibitory activity on luciferase production: tested at 0.66 and 6.6 μM, FIG. 5
[10] = Mycobacterium tuberculosis, H37RV, 168 h, read-out: MIC

CN[C@@H]1[C@H](O)[C@H](NC)C2O[C@]3(O)C(OC2[C@H]1O)O[C@H](C)C[C@H]3NCc1ccc(F)cc1 (stereo partly drawn) [Compound 1424, 3′-Dihydro-3′-deoxy-4(R)-4-fluoro)benzylamino spectinomycin Trihydrochloride]
MIC (M. tuberculosis H37Rv; [10]): 200 µg/mL
MIC [1]: 50 µg/mL
MIC [2]: 50 µg/mL
MIC [3]: 25 µg/mL
MIC (E. faecalis ATCC 33186): 100 µg/mL
MIC (B. anthracis Sterne 34F2): 100 µg/mL
MIC [4]: > 200 µg/mL
MIC [5]: > 200 µg/mL
MIC [6]: > 200 µg/mL
MIC [7]: > 200 µg/mL
MIC [8]: > 200 µg/mL
MIC (P. aeruginosa PAO1): 200 µg/mL
MIC [9]: > 200 µg/mL
MIC (E. coli K12): 200 µg/mL
MIC (E. coli K12 ΔtolC): 50 µg/mL
IC50, 50% inhibition of luciferase biosynthesis in S30 assay (E. coli ribosomes): 0.80 µg/mL
relative inhibitory activity on luciferase production (E. coli ribosomes): inhibited well

CN[C@@H]1[C@H](O)[C@H](NC)C2O[C@]3(O)C(OC2[C@H]1O)O[C@H](C)C[C@H]3NC(=O)c1ccc(F)cc1 (stereo partly drawn) [Compound 1364, 3′-Dihydro-3′-deoxy-4(R)-4-fluorobenzoylamino spectinomycin Dihydrochloride]
MIC (M. tuberculosis H37Rv; [10]): 50 µg/mL
MIC [1]: > 200 µg/mL
MIC [2]: 100 µg/mL
MIC [3]: > 200 µg/mL
MIC (E. faecalis ATCC 33186): > 200 µg/mL
MIC (B. anthracis Sterne 34F2): 200 µg/mL
MIC [4]: > 200 µg/mL
MIC [5]: > 200 µg/mL
MIC [6]: > 200 µg/mL
MIC [7]: > 200 µg/mL
MIC [8]: > 200 µg/mL
MIC (P. aeruginosa PAO1): > 200 µg/mL
MIC [9]: > 200 µg/mL
MIC (E. coli K12): > 200 µg/mL
MIC (E. coli K12 ΔtolC): 100 µg/mL
relative inhibitory activity on luciferase production (E. coli ribosomes): less active than 1329

CN[C@@H]1[C@H](O)[C@H](NC)C2O[C@]3(O)C(OC2[C@H]1O)O[C@H](C)C[C@H]3NC(=O)Cc1csc(N)n1 (stereo partly drawn) [Compound 1444, 3′-Dihydro-3′-deoxy-4(R)-(2-aminothiazol-4-yl)acetylamino spectinomycin trihydrobromide]
MIC (M. tuberculosis H37Rv; [10]): 3.1 µg/mL
MIC [1]: 100 µg/mL
MIC [2]: 25 µg/mL
MIC [3]: 25 µg/mL
MIC (E. faecalis ATCC 33186): 50 µg/mL
MIC (B. anthracis Sterne 34F2): 6.25 µg/mL
MIC [4]: > 200 µg/mL
MIC [5]: > 200 µg/mL
MIC [6]: > 200 µg/mL
MIC [7]: 100 µg/mL
MIC [8]: > 200 µg/mL
MIC (P. aeruginosa PAO1): > 200 µg/mL
MIC [9]: > 200 µg/mL
MIC (E. coli K12): 100 µg/mL
MIC (E. coli K12 ΔtolC): 200 µg/mL
IC50, 50% inhibition of luciferase biosynthesis in S30 assay (E. coli ribosomes): 0.12 µg/mL

CN[C@@H]1[C@H](O)[C@H](NC)C2O[C@]3(O)C(OC2[C@H]1O)O[C@H](C)C[C@H]3NC(=O)Cc1ccc(OC)cc1 (stereo partly drawn) [Compound 1446, 3′-Dihydro-3′-deoxy-4(R)-(4-methoxy-phenyl)acetylamino spectinomycin Dihydrochloride]
MIC (M. tuberculosis H37Rv; [10]): 12.5 µg/mL
MIC [1]: > 200 µg/mL
MIC [2]: 6.25 µg/mL
MIC [3]: 6.25 µg/mL
MIC (E. faecalis ATCC 33186): 200 µg/mL
MIC (B. anthracis Sterne 34F2): 100 µg/mL
MIC [4]: > 200 µg/mL
MIC [5]: > 200 µg/mL
MIC [6]: > 200 µg/mL
MIC [7]: 200 µg/mL
MIC [8]: > 200 µg/mL
MIC (P. aeruginosa PAO1): > 200 µg/mL
MIC [9]: > 200 µg/mL
MIC (E. coli K12): 200 µg/mL
MIC (E. coli K12 ΔtolC): > 200 µg/mL
IC50, 50% inhibition of luciferase biosynthesis in S30 assay (E. coli ribosomes): 0.68 µg/mL

CN[C@@H]1[C@H](O)[C@H](NC)C2O[C@]3(O)C(OC2[C@H]1O)O[C@H](C)C[C@H]3NC(=O)c1cnccn1 (stereo partly drawn) [Compound 1453, 3′-Dihydro-3′-deoxy-4(R)-(pyrazine-2-yl)carboxylicamino spectinomycin tetrahydrobromide]
MIC (M. tuberculosis H37Rv; [10]): > 200 µg/mL
MIC [1]: > 200 µg/mL
MIC [2]: 25 µg/mL
MIC [3]: 25 µg/mL
MIC (E. faecalis ATCC 33186): > 200 µg/mL
MIC (B. anthracis Sterne 34F2): > 200 µg/mL
MIC [4]: > 200 µg/mL
MIC [5]: > 200 µg/mL
MIC [6]: > 200 µg/mL
MIC [7]: > 200 µg/mL
MIC [8]: > 200 µg/mL
MIC (P. aeruginosa PAO1): > 200 µg/mL
MIC [9]: > 200 µg/mL
MIC (E. coli K12): > 200 µg/mL
MIC (E. coli K12 ΔtolC): 200 µg/mL
IC50, 50% inhibition of luciferase biosynthesis in S30 assay (E. coli ribosomes): 1.04 µg/mL

CN[C@@H]1[C@H](O)[C@H](NC)C2O[C@]3(O)C(OC2[C@H]1O)O[C@H](C)C[C@H]3NC(=O)Cc1cccnc1 (stereo partly drawn) [Compound 1368, 3′-Dihydro-3′-deoxy-4(R)-(pyridin-3-yl)acetylamino spectinomycin Dihydrochloride]
MIC (M. tuberculosis H37Rv; [10]): 12.5 µg/mL
MIC [1]: 50 µg/mL
MIC [2]: > 200 µg/mL
MIC [3]: > 200 µg/mL
MIC (E. faecalis ATCC 33186): > 200 µg/mL
MIC (B. anthracis Sterne 34F2): 6.25 µg/mL
MIC [4]: > 200 µg/mL
MIC [5]: > 200 µg/mL
MIC [6]: > 200 µg/mL
MIC [7]: > 200 µg/mL
MIC [8]: > 200 µg/mL
MIC (P. aeruginosa PAO1): > 200 µg/mL
MIC [9]: > 200 µg/mL
MIC (E. coli K12): 100 µg/mL
MIC (E. coli K12 ΔtolC): > 200 µg/mL
IC50, 50% inhibition of luciferase biosynthesis in S30 assay (E. coli ribosomes): 1.08 µg/mL

CN[C@@H]1[C@H](O)[C@H](NC)C2O[C@]3(O)C(OC2[C@H]1O)O[C@H](C)C[C@H]3NC(=O)Cc1cscn1 (stereo partly drawn) [Compound 1443, 3′-Dihydro-3′-deoxy-4(R)-(thiazol-4-yl)acetylamino spectinomycin trihydrobromide]
MIC (M. tuberculosis H37Rv; [10]): 1.6 µg/mL
MIC [1]: 50 µg/mL
MIC [2]: 6.25 µg/mL
MIC [3]: 12.5 µg/mL
MIC (E. faecalis ATCC 33186): 50 µg/mL
MIC (B. anthracis Sterne 34F2): 1.6 µg/mL
MIC [4]: > 200 µg/mL
MIC [5]: > 200 µg/mL
MIC [6]: > 200 µg/mL
MIC [7]: 100 µg/mL
MIC [8]: > 200 µg/mL
MIC (P. aeruginosa PAO1): > 200 µg/mL
MIC [9]: > 200 µg/mL
MIC (E. coli K12): 100 µg/mL
MIC (E. coli K12 ΔtolC): 200 µg/mL
IC50, 50% inhibition of luciferase biosynthesis in S30 assay (E. coli ribosomes): 0.29 µg/mL

CN[C@@H]1[C@H](O)[C@H](NC)C2O[C@]3(O)C(OC2[C@H]1O)O[C@H](C)C[C@H]3NC(=O)Cc1nc2ccccc2o1 (stereo partly drawn) [Compound 1465, 3′-Dihydro-3′-deoxy-4(R)-(benzooxazol-2-yl)acetylamino spectinomycin trihydrobromide]
MIC (M. tuberculosis H37Rv; [10]): 3.12 µg/mL
MIC [1]: > 200 µg/mL
MIC [2]: 12.5 µg/mL
MIC [3]: 12.5 µg/mL
MIC (E. faecalis ATCC 33186): 100 µg/mL
MIC (B. anthracis Sterne 34F2): 100 µg/mL
MIC [4]: > 200 µg/mL
MIC [5]: > 200 µg/mL
MIC [6]: > 200 µg/mL
MIC [7]: > 200 µg/mL
MIC [8]: > 200 µg/mL
MIC (P. aeruginosa PAO1): > 200 µg/mL
MIC [9]: > 200 µg/mL
MIC (E. coli K12): > 200 µg/mL
MIC (E. coli K12 ΔtolC): 12.5 µg/mL
IC50, 50% inhibition of luciferase biosynthesis in S30 assay (E. coli ribosomes): 0.50 µg/mL

CN[C@@H]1[C@H](O)[C@H](NC)C2O[C@]3(O)C(OC2[C@H]1O)O[C@H](C)C[C@H]3NCCC(C)C (stereo partly drawn) [Compound 1420, 3′-Dihydro-3′-deoxy-4(R)-(3-methyl)butylamino spectinomycin Trihydrochloride]
MIC (M. tuberculosis H37Rv; [10]): 200 µg/mL
MIC [1]: 100 µg/mL
MIC [2]: 200 µg/mL
MIC [3]: 100 µg/mL
MIC (E. faecalis ATCC 33186): 200 µg/mL
MIC (B. anthracis Sterne 34F2): 50 µg/mL
MIC [4]: > 200 µg/mL
MIC [5]: > 200 µg/mL
MIC [6]: > 200 µg/mL
MIC [7]: > 200 µg/mL
MIC [8]: > 200 µg/mL
MIC (P. aeruginosa PAO1): 200 µg/mL
MIC [9]: 200 µg/mL
MIC (E. coli K12): 100 µg/mL
MIC (E. coli K12 ΔtolC): 25 µg/mL
relative inhibitory activity on luciferase production (E. coli ribosomes): inhibited well

3′-Dihydro-3′-deoxy-4(R)-dodecanoylamino spectinomycin Dihydrochloride [Compound 1366]
MIC (M. tuberculosis H37Rv): 1.6 µg/mL
MIC S. aureus [1]: 25 µg/mL
MIC S. pyogenes [2]: >200 µg/mL
MIC S. pneumoniae [3]: 25 µg/mL
MIC E. faecalis (E. faecalis ATCC 33186): 25 µg/mL
MIC B. anthracis 34F2 (B. anthracis Sterne 34F2): >200 µg/mL
MIC B. cepcia [4]: >200 µg/mL
MIC P. mir [5]: >200 µg/mL
MIC P. vul [6]: >200 µg/mL
MIC K. pneu. [7]: >200 µg/mL
MIC A. bau. [8]: >200 µg/mL
MIC P. aer. (P. aeruginosa PAO1): 50 µg/mL
MIC S. mal [9]: 25 µg/mL
MIC E. coli K12 (E. coli K12; E. coli K12): >200 µg/mL
MIC E. coli K12 ΔtolC (E. coli K12 ΔtolC; tolC knockout strain, defective multi-drug efflux pump): 12.5 µg/mL
IC50, 50% inhibition of luciferase biosynthesis in S30 assay (E. coli ribosomes): 15.3 µg/mL
